According to patent US9458203B2, “Integrin-blocking polypeptides and uses thereof” (priority 2011, dated 2016):
Values joined by “and” are separate entries in the source; they are usually repeats but may differ in a detail not shown here. Equal entries are not always repeated. Where two headings read alike, the source gives them in different places.

Assays:
[1] = format: in vivo, nude mice; conditions: mouse, in vivo
Description: (§1) The total medication period was 14 days.

sarcoma HT-1080 = format: in vivo, nude mice
Description: as §1

[2] = test system: human testicular cancer 5637; format: in vivo, nude mice
Description: as §1

[3] = test system: human thyroid cancer SW-579; format: in vivo, nude mice
Description: (§2) Taking a certain amount of vigorously growing tumor tissue, grinding the tumor tissue under sterile conditions and preparing cell suspension at the concentration of 1×10^7 cells/ml; then hypodermicaly inoculating 0.1 ml of the cell suspension into the right axillary region of nude mice. Keeping measuring the diameter of the transplanted tumor with a vernier caliper, and randomly dividing the mice into groups when the volume of the tumor reached 100-200 mm^3. […] Measuring the tumor diameter once every other day and recording the body weight of mice simultaneously. Intravenously injecting polypeptides to mice from test groups while administering equal quantity of physiological saline to mice from the negative control group. The total medication period was 14 days. Avastin was adopted to set up a positive control group; it was administered through the tail vein once every three days while all other drugs were administered through the tail vein once a day. Leaving mice for a one-week rest after 14 days' medication, then (21 days after medication) killing the mice, surgically dissecting the tumors and measuring the weight of tumors. The tumor volume (TV) was calculated in accordance with the following formula: TV=½×a×b^2

[4] = test system: human prostate cancer DU-145; format: in vivo, nude mice
Description: as §2

[5] = test system: human cervical cancer HeLa; format: in vivo, nude mice
Description: as §2

human colon cancer HT-29 = format: in vivo, nude mice
Description: as §2

[6] = test system: human ovarian cancer SK-OV-3; format: in vivo, nude mice
Description: as §2

human renal cancer A498 = format: in vivo, nude mice
Description: as §2

[7] = 5-FU 10 mg/kg/time, once every 3 days, tail vein injection
[8] = positive control, tail vein once every 3 days
[9] = 10 mg/kg/time, once every 3 days, tail vein injection
[10] = 5 mg/kg/time (as printed in Table 29), once every 3 days, tail vein injection
[11] = 10 mg/kg/time, tail vein once every 3 days
[12] = cisplatin 10 mg/kg/time, once every 3 days, tail vein injection

With `O=c1[nH]cc(F)c(=O)[nH]1` [5-FU, 5-fluorouracil, reference compound] the “body weight of animals, in words” value [1] was “greatly reduced the body weight”, the tumor inhibition rate (sarcoma HT-1080; [7]) was 78.10% and the tumor weight (sarcoma HT-1080; [7]) was 0.30 ± 0.07 g. For the same compound, the “body weight of animals, in words” value (sarcoma HT-1080; mouse, in vivo) was “greatly reduced the body weight”, the “toxic and side effects, in words” value (sarcoma HT-1080; mouse, in vivo) was “more apparent toxic and side effects” and the “inhibition rate on tumor” value (sarcoma HT-1080; [8]) was 78.10%. The tumor inhibition rate [2, 9] was 77.80%, the tumor weight [2, 9] was 0.28 ± 0.06 g and the “toxic and side effects, in words” value ([2]; mouse, in vivo) was “more apparent toxic and side effects”. For the same compound, the “inhibition rate on tumor” value ([2]; tail vein once every 3 days) was 77.80% and 73.84%.
With `N.N.[Cl][Pt][Cl]` [cisplatin, reference compound] the tumor inhibition rate [3, 9] was 74.09%, the tumor weight [3, 9] was 0.34 ± 0.07 g and the “body weight of animals, in words” value ([3]; mouse, in vivo) was “greatly reduced the body weight”. For the same compound, the “inhibition rate on tumor” value [3, 8] was 74.09%, the tumor inhibition rate [4, 10] was 73.84% and the tumor weight [4, 10] was 0.37 ± 0.10 g. The tumor inhibition rate [4, 9] was 73.84%, the tumor weight [4, 9] was 0.37 ± 0.10 g and the tumor inhibition rate [4, 11] was 73.84%. The tumor weight [4, 11] was 0.37 ± 0.10 g, the “body weight of animals, in words” value ([4]; mouse, in vivo) was “greatly reduced the body weight” and the tumor inhibition rate [5, 11] was 73.13%. The tumor weight [5, 11] was 0.38 ± 0.10 g, the “body weight of animals, in words” value ([5]; mouse, in vivo) was “greatly reduced the body weight” and the tumor inhibition rate (human colon cancer HT-29; [9]) was 79.17%. For the same compound, the tumor weight (human colon cancer HT-29; [9]) was 0.30 ± 0.05 g, the “body weight of animals, in words” value (human colon cancer HT-29; mouse, in vivo) was “greatly reduced the body weight” and the “inhibition rate on tumor” value (human colon cancer HT-29; [8]) was 79.17%. The tumor inhibition rate [6, 12] was 78.36%, the tumor weight [6, 12] was 0.29 ± 0.06 g and the “body weight of animals, in words” value ([6]; mouse, in vivo) was “greatly reduced the body weight”. For the same compound, the “inhibition rate on tumor” value [6, 8] was 78.36%, the tumor inhibition rate (human renal cancer A498; [9]) was 79.83% and the tumor weight (human renal cancer A498; [9]) was 0.25 ± 0.06 g. The “body weight of animals, in words” value (human renal cancer A498; mouse, in vivo) was “greatly reduced the body weight” and the “inhibition rate on tumor” value (human renal cancer A498; [8]) was 79.83%.
